Measurements reported in ChEMBL document CHEMBL1132019, “RNA-aminoglycoside antibiotic interactions: fluorescence detection of binding and conformational change” (Bioorg Med Chem Lett, 1999).

Tests used:
[1] = Compound was tested for inhibition against hammer head ribozyme complex (HH16-F)
[2] = Compound was evaluated for the apparent second-order binding constant (K) at a concentration of 90 uM to 5 mM
[3] = Compound was evaluated for the apparent first-order binding constant (K) at a concentration of 90 uM to 5 mM

- Ki [1]: 13.5 µM
- K [2]: 8 M-2
- K [3]: 4 M⁻¹
Compound: NC[C@@H]1O[C@H](O[C@H]2[C@@H](O)[C@H](O[C@@H]3[C@@H](O)[C@H](N)C[C@H](N)[C@H]3O[C@H]3O[C@H](CN)[C@@H](O)[C@H](O)[C@H]3N)O[C@@H]2CO)[C@H](N)[C@@H](O)[C@@H]1O [FRAMYCETIN]
